{
  "source": "patent US20260053801A1",
  "about": "“METHOD FOR TREATING AUTOPHAGY DEPENDENT CANCER WITH A PIKFYVE INHIBITOR” (The Regents of the University of Michigan, priority 2023, published 2026)",
  "key": {"LTL545 NEPC PDX tumors": {"test_system": "LTL545 NEPC PDX tumors", "assay": "LTL545 NEPC PDX model", "details": "mouse, in vivo"}, "[1]": {"test_system": "MIA-PaCa-2 human PDAC cell line xenograft", "assay": "MIA-PaCa-2 PDAC xenograft (CDX) in SCID mice", "assay_type": "in vivo", "details": "Day 36 versus Day 1", "description": "(§1) For xenograft studies, 6-10-week-old CB17 severe combined immunodeficiency (SCID) mice obtained from the University of Michigan breeding colony were used. For syngeneic studies, 6-10-week-old C57BL6 mice obtained from Jackson Laboratories were used. Subcutaneous tumors were established at both sides of the dorsal flank of the mice by injecting 1×10^6 cells in […] of 50:50 Matrigel and serum-free media. Tumors were measured 2-3 times per week using digital calipers following the formula (π/6) (L×W2), where L=length and W=width of the tumor. At the end of the studies, mice were sacrificed, and tumors extracted and weighed.\nTerminal dUTP Nick End Labeling (TUNEL) staining was performed with an In Situ Cell Death Detection Kit (TMR Red #12156792910; Roche Applied Science) following the manufacturer's instructions. Briefly, fixed sections were permeabilized using Triton X-100 followed by PBS washing. The labelling reaction was performed at 37° C. for 1 hour by addition of the reaction buffer containing enzymes. Images were acquired using a Zeiss Axiolmager M1 microscope.\nGiven the enhanced autophagy dependence of PDAC and the urgent need for new therapies, ESK981 was investigated for efficacy in combatting this type of cancer. […]"}, "7940B orthotopic tumors": {"test_system": "7940B orthotopic tumors", "assay": "7940B syngeneic orthotopic model in C57BL/6 mice", "assay_type": "in vivo, mouse", "details": "ESK981 30 mg/kg QD PO, trametinib 1 mg/kg QD PO"}, "[2]": {"test_system": "NCI-H660 NEPC cell line-derived xenografts", "assay": "NCI-H660 NEPC xenograft in SCID mice", "assay_type": "in vivo", "details": "46 days of treatment, 30 mg/kg", "description": "as §1\nGiven the hypoxic and nutrient-depleted environments of NEPC Guo et al., Nat Commun. 2019; 10(1):278; Qi et al., Cancer Cell. 2010; 18(1):23-38., it was hypothesized that NEPC may be dependent on autophagy and sensitive to PIKfyve inhibition by ESK981. To test this NEPC prostate patient-derived xenograft (PDX) of NCI-H660, LTL331R, and LTL610 were subcutaneously grown into non-castrated SCID mice until tumors reached an average size of 100 mm^3, after which mice were randomized into two groups. Mice in each group received either vehicle or 30 mg/kg ESK981 five days per week. […] The anti-tumor effect of ESK981 was in turn confirmed in two additional NEPC PDX models including LTL331R (FIGS. 12-14) and LTL610 xenografts (FIG. 15-17). […]"}, "[3]": {"test_system": "MIA PaCa-2, PANC-1, and 7940B cell lines", "assay": "Confluence assays of ND646 with PIKfyve inhibitors", "assay_type": "cell-based, human and mouse", "details": "ND646 100 nM (MIA PaCa-2, PANC-1), 1000 nM (7940B)", "description": "(§2) Cells were seeded in a clear 96-well plate overnight prior to treatment. Upon treatment with indicated compounds, plates were incubated in an Incucyte S3 2022 Rev1 (Sartorious), with 10× images taken every 4 hours, and well confluence was analyzed to assess for proliferation."}, "ACC1": {"target": "T1, ACC1 (Homo sapiens, UniProt Q13085)", "T1 construct": "endogenous in cells; host or cells: MIA PaCa-2 (human PDAC)", "assay": "Immunoblot of ACC1 phosphorylation status upon ND646", "assay_type": "cell-based", "details": "MIA PaCa-2, PANC-1, 7940B cells", "description": "Cell lysates were prepared in RIPA buffer (ThermoFisher Scientific) supplemented with Halt™ Protease and Phosphatase Inhibitor Cocktail (ThermoFisher Scientific). Total protein was measured by DC™ Protein Assay Kit II (BIO-RAD). An equal amount of protein was resolved in NuPAGE™ 3 to 8%, Tris-Acetate Protein Gel (ThermoFisher Scientific) or NuPAGE™ 4 to 12%, Bis-Tris Protein Gel (ThermoFisher Scientific), blocked with 5% nonfat dry milk in TBS-T and blotted with primary antibodies overnight. Following incubation with HRP-conjugated secondary antibodies, membranes were imaged on an Odyssey CLx Imager (LiCOR Biosciences)."}, "7940B cells": {"test_system": "7940B cells", "assay": "Real-time oxygen consumption rate (Resipher) in 7940B cells", "assay_type": "cell-based, mouse", "details": "apilimod 100 nM, ESK981 1000 nM, bafilomycin 100 nM, chloroquine 100 μM", "description": "Real-time monitoring of basal oxygen consumption rate was performed using a Resipher (Lucid Scientific). […] Immediately following treatment with an additional 50 μl of medium (for a total of 100 μl), OCR monitoring was started by placing the Resipher device on the cells, which was incubated at 37° C. and 5% CO2 for 24 hours."}, "[4]": {"test_system": "PDAC cells (7940B, PANC-1, Panc 04.03)", "assay": "Rescue of antiproliferative effects with ferric ammonium citrate (FAC)", "assay_type": "cell-based, human and mouse", "details": "with ferric ammonium citrate and ferrostatin-1 (1 μM)", "description": "as §2"}},
  "data": [
    {"smiles": "CC(C)Cn1c2ccc(Nc3ncccn3)cc2c2c3c(c4c(c21)CCc1nn(C)cc1-4)C(=O)NC3", "note": "[ESK981, 13-isobutyl-4-methyl-10-(pyrimidin-2-ylamino)-1,2,4,7,8,13-hexahydro-6H-indazolo[5,4-a]pyrrolo[3,4-c]carbazol-6-one]", "values": [
      {"measurement": "individual tumors regressed (waterfall plot)", "setting": "LTL545 NEPC PDX tumors", "value": 80, "unit": "%"},
      {"measurement": "tumors cured", "setting": "LTL545 NEPC PDX tumors", "value": 80, "unit": "%"},
      {"measurement": "rate of tumor regression (waterfall plot)", "setting": "[1]", "value": 64, "unit": "%"},
      {"measurement": "mouse body weight throughout the treatment course", "setting": "7940B orthotopic tumors", "value": "did not impact mouse body weight"},
      {"measurement": "adverse events", "setting": "[2]", "value": "no adverse events were observed"}
    ]},
    {"smiles": "COc1ccccc1[C@H](Cn1c(=O)n(C(C)(C)C(N)=O)c(=O)c2c(C)c(-c3ncco3)sc21)OC1CCOCC1", "note": "[ND646]", "values": [
      {"measurement": "sensitization to ESK981 (confluence)", "setting": "[3]; ESK981 30 nM or 100 nM", "value": "sensitized"},
      {"measurement": "sensitization to apilimod (confluence)", "setting": "[3]; apilimod 100 nM or 50 nM", "value": "sensitized"},
      {"measurement": "phosphorylation status of ACC1 (p-ACC1)", "setting": "ACC1", "value": "on-target effects"}
    ]},
    {"smiles": "CO/C1=C\\C(C)=C\\[C@@H](C)[C@@H](O)[C@@H](C)C/C(C)=C/C=C/[C@H](OC)[C@@H]([C@@H](C)[C@@H](O)[C@H](C)[C@@]2(O)C[C@@H](O)[C@H](C)[C@@H](C(C)C)O2)OC1=O", "note": "[bafilomycin A1]", "values": [
      {"measurement": "OCR through 24 hours of treatment", "setting": "7940B cells", "value": "significantly decreased OCR"},
      {"measurement": "antiproliferative effects upon addition of FAC", "setting": "[4]", "value": "drastically attenuated"}
    ]},
    {"smiles": "CC(=O)Nc1cccc(-n2c(=O)n(C3CC3)c(=O)c3c(Nc4ccc(I)cc4F)n(C)c(=O)c(C)c32)c1", "note": "[trametinib]", "values": [
      {"measurement": "mouse body weight throughout the treatment course", "setting": "7940B orthotopic tumors", "value": "did not impact mouse body weight"}
    ]}
  ]
}
